From US20110230472A1, “RING-FUSED AZOLE DERIVATIVE HAVING PI3K-INHIBITING ACTIVITY” (Shionogi & Co., Ltd., priority 2008, published 2011)

Key:
[1] = system: Salmonella typhimurium TA98 line, TA100 line; assay: FAT test (mutagenicity); parameters: key: When the mutagenicity is negative, the compound is shown as (−); When positive, the compound is shown as (+); settings: TA98 and TA100 lines; non-metabolism-activation and metabolism-activation conditions
Method: 20 μL of Salmonella enterica subsp. typhimurium (Salmonella typhimurium TA98 line, TA100 line) cryopreserved was inoculated to 10 mL of liquid nutrient medium (2.5% Oxoid nutrient broth No. 2) and then precultured at 37° C. for 10 hours with shaking. Regarding TA98 line, after 9 mL of a bacterial suspension was centrifuged (2000×g, 10 minutes) to remove the culture solution, the bacteria was suspended in 9 mL of Micro F buffer solution (K2HPO4: 3.5 g/L, KH2PO4: 1 g/L, (NH4)2SO4: 1 g/L, tri-sodium citric acid dihydrate: 0.25 g/L, MgSO4.7H2O: 0.1 g/L), and then added to 110 mL of Exposure media (Micro F buffer solution containing biotin: 8 μg/mL, histidine: 0.2 μg/mL, glucose: 8 mg/mL). Regarding TA 100 line, 120 mL of Exposure media was added to 3.16 mL of the bacterial suspension to prepare a test bacterial suspension. 12 μL of a solution of a test substance in DMSO (diluted eight times in a common ratio of 2 from the maximum dose of 50 mg/mL); 12 μL of DMSO as a negative control; 50 μg/mL 4-nitroquinoline-1-oxide solution in DMSO for TA98 line or 0.25 μg/mL 2-(2-furyl)-3-(5-nitro-2-furyl)acrylamide solution in DMSO as a positive control for TA 100 line in the case of a non-metabolism-activation condition; 12 μL of 40 μg/mL 2-aminoanthracene solution in DMSO for TA98 line or 20 μg/mL of 2-aminoanthracene solution in DMSO for TA100 line in the case of a metabolism-activation condition; were each mixed with 588 μL of the test bacterial suspension (in the case of a metabolism activation condition, a mixed solution of 498 μL of the test bacterial suspension and 90 μL S9 mix) and then cultured at 37° C. at 90 minutes with shaking. 460 μL of the bacterial suspension to which a test substance was exposed was mixed with 230 μL of Indicator media (a Micro F buffer solution containing 8 μg/mL biotin, 0.2 μg/mL histidine, 8 mg/mL glucose, and 37.5 μg/mL bromocresol purple). 50 μL thereof was dispensed to microplate 48 wells/dose and then statically cultured at 37° C. for 3 days. In a well containing bacteria which obtained proliferation potency by mutation of the amino acid (histidine) synthetase gene, the change of pH caused the color change from purple to yellow. Thus, in 48 wells per dose, the number of the bacteria-proliferation wells in which the color changed to yellow was counted, compared with a group of negative controls, and then evaluated. When the mutagenicity is negative, the compound is shown as (−). When positive, the compound is shown as (+).

[2] = target: PI-3 kinase γ (Homo sapiens, UniProt P48736); assay: PI3Kγ inhibitory activity (Ki value), HTRF; assay type: biochemical; settings: Ki=IC50/(1+10 μM ATP/Km)
How it was run: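 IC50 was measured by HTRF over 50-0.05 μmol/L compound and fitted by logistic approximation or two-point linear regression. ATP Km came from Lineweaver-Burk plots of HTRF signal at 0.625-80 μmol/L ATP. Ki = IC50/(1+10 μM/Km).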

[3] = system: AKT phosphorylation in human monocyte-like cell line THP-1; assay: AKT phosphorylation inhibitory activity in MCP-1-stimulated THP-1 cells (ELISA); assay type: cell-based; settings: 1 μmol/L solution of each compound, MCP-1 stimulation, read-out: AKT phosphorylation inhibition ratio
Method: (1) The AKT phosphorylation inhibitory activity of a compound was evaluated according to the following procedure. (2) Human monocyte-like cell line THP-1 was washed with RPMI-1640 media, incubated in the presence of 5% CO2 at 37° C. for 3 hours, washed with Hank's balanced salt solution (HBSS), adjusted to a cell concentration of 6.6×10^6/mL, and then used in an experiment. (3) 30 μL of the cell suspension and 60 μL of each compound solution containing 0.2% DMSO/HBSS were mixed and then preincubated at 37° C. for 5 minutes. 30 μL of HBSS containing 4 μg/mL of MCP-1 was added thereto and then incubated for 30 seconds at 37° C. (4) 30 μl of a cell lysate (20 mmol/L Tris-HCl (pH 7.5), 150 mmol/L NaCl, 1 mmol/L Na2EDTA, 1 mmol/L EGTA, 1% Triton, 2.5 mmol/L sodium pyrophosphate, 1 mmol/L β-glycerophosphate, 1 mmol/L Na3VO4, 1 μg/ml leupeptin, 50 nmol/L APMSF) was added thereto to lyse cells. (5) The amount of AKT phosphorylation in the cell lysate was measured by ELISA method. (6) Anti-phospho-Akt (Ser473) antibodies (clone 193H12, derived from a rabbit) were immobilized onto the solid phase of a micro well plate. 100 μL of the prepared cell lysate was added to the micro well plate, incubated for 2 hours at 37° C., and then washed four times with Phosphate Buffered Saline containing 0.05% Tween-20. (7) An anti-AKT1 antibody (clone 2H10, derived from a mouse) was added thereto, incubated for 1 hour at 37° C., washed similarly, and then reacted with an HRP-labeled anti-mouse IgG antibody. (8) After incubating at 37° C. for 30 minutes and then washing similarly, 100 μL of TMB (3,3′,5,5″-tetramethylbenzidine) was added thereto, followed by reacting at room temperature for 30 minutes. (9) 100 μL of 1 mol/L sulfuric acid was added to quench the color reaction and then the absorbance at 450 nm was measured. (10) A series of diluted cell lysates of a positive control (a sample in the absence of a compound) were used to prepare a calibration curve, the amount of AKT phosphorylation in a sample in the absence of MCP-1 was defined as 0% activity to calculate an inhibition ratio. The measurement was performed for a 1 μmol/L solution of each compound.

PI-3 kinase γ, sequence (P48736 whole entry): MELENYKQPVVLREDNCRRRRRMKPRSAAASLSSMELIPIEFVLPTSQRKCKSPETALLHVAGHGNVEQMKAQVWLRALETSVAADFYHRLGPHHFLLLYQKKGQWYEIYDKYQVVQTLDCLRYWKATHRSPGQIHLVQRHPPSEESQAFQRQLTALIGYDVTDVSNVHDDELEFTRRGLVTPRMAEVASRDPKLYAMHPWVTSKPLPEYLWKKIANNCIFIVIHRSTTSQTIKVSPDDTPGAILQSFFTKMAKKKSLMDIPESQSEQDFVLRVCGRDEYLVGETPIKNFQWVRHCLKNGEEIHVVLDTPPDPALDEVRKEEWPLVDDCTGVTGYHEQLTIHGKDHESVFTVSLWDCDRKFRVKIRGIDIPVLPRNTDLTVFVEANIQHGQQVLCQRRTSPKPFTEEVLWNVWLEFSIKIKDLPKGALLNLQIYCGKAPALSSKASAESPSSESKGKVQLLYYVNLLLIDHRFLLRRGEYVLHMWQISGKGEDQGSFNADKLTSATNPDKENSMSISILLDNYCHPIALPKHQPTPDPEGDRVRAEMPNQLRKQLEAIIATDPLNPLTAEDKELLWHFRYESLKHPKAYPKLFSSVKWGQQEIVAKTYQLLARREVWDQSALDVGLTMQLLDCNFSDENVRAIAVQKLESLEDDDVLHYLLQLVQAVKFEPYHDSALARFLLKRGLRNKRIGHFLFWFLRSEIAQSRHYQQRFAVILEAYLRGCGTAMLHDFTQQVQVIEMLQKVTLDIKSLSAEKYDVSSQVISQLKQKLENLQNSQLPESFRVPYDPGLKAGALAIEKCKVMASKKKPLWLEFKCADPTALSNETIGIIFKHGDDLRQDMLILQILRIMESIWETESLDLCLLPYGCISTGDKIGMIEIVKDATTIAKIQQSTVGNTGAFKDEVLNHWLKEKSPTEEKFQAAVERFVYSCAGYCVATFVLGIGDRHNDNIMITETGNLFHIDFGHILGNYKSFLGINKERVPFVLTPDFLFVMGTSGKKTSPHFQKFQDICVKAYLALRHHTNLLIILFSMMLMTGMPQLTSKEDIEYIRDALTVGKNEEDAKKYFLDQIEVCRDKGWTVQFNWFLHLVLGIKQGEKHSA

Ki [2] | Compound | mutagenicity (FAT test) [1] | inhibition [3]
 | CNC(=O)Nc1cc2n(n1)CCN2c1ccc(S(C)(=O)=O)cc1 [Compound I-89] | (−) | 
 | CNC(=O)Nc1nc2c(s1)CN(c1ccnc(OC)n1)CC2 [Compound I-142] | (−) | 
22 nM | COc1cc(N2CCc3nc(NC(=O)NCC(=O)O)sc3C2)nc(OC)n1 [Compound I-208] |  | 
29 nM | COc1cc(N2CCc3nc(NC(=O)NCc4cc(=O)[nH]o4)sc3C2)nc(OC)n1 [Compound I-279] |  | 
 | CN1CCc2cc(N3CCn4nc(NC(=O)c5cccnc5)cc43)ccc2C1=O [Compound I-347] |  | 80.6%
 | CN1CCc2cc(N3CCn4nc(NC(=O)c5ccco5)cc43)ccc2C1=O [Compound I-358] | (−) | 95.9%
